In patent publication US7625910B2, “Co-crystal” (AstraZeneca AB, priority 2006, dated 2009):

Assays:
Dynamic Vapour Sorption = format: physicochemical; conditions: 25° C.; for hygroscopicity: 0-95% RH, two cycles, batches from Method 1 and Method 2 (FIGS. 4 and 5)
Method: Analytical Instrument: Surface Measurements Systems Dynamic Vapour Sorption Analyser. About 5 mg of material contained in a quartz holder at a specified temperature was subjected to humidified nitrogen at a flow rate of 200 ml/minute of nitrogen at 25° C. at the following relative humidities (RH): 0, 20, 40, 60, 80, 95, 80, 60, 40, 20, 0% RH in duplicate. The weight of the material at a particular relative humidity was monitored until it was stable according to a weight criteria of 0.002% weight change per minute averaged over 10 minutes. If the weight was still changing then it stayed at a particular relative humidity until the weight was stable (up to a maximum time of 12 hours).

[1] = system: human colorectal (SW620, HCT116, Colo205) and lung (A549, Calu-6) tumour xenografts; test: tumour growth inhibition in human tumour xenografts; format: in vivo; conditions: panel of human colorectal (SW620, HCT116, Colo205) and lung (A549, Calu-6) tumour xenografts; with statistical significance
[2] = pro-drug conversion in human plasma; format: in vitro ADME

Compound | hygroscopicity (Dynamic Vapour Sorption) | hygroscopicity (Dynamic Vapour Sorption; listed as maleate co-crystal of AZD1152) | level of water (hydration state) with relative humidity (Dynamic Vapour Sorption; 0-95% RH (FIG. 6), dehydrated to tetrahydrated state and higher) | inhibition of tumour growth [1] | conversion of pro-drug to active moiety AZD1152 HQPA [2]
CCN(CCCOc1ccc2c(Nc3cc(CC(=O)Nc4cccc(F)c4)[nH]n3)ncnc2c1)CCOP(=O)(O)O.O=C(O)/C=C\C(=O)O [AZD1152 maleate co-crystal, 2-{ethyl[3-({4-[(5-{2-[(3-fluorophenyl)amino]-2-oxoethyl}-1H-pyrazol-3-yl)amino]quinazolin-7-yl}oxy)propyl]amino}ethyl dihydrogen phosphate.maleate] | non-hygroscopic | substantially non-hygroscopic |  |  | 
CCN(CCCOc1ccc2c(Nc3cc(CC(=O)Nc4cccc(F)c4)n[nH]3)ncnc2c1)CCOP(=O)(O)O [AZD1152, 2-{ethyl[3-({4-[(5-{2-[(3-fluorophenyl)amino]-2-oxoethyl}-1H-pyrazol-3-yl)amino]quinazolin-7-yl}oxy)propyl]amino}ethyl dihydrogen phosphate] |  |  | quite variable depending on the relative humidity of storage | inhibit tumour growth | rapidly and completely converted
